The structures appear in SMILES notation. Some results are limits rather than exact numbers.

For nine molecules, IC50 results are on record in US20250215006A1, “TRICYCLIC COMPOUNDS AS INHIBITORS OF WRN” (Incyte Corporation, priority 2023, published 2025).

For assay [1], the target named is T1, WRN (Homo sapiens, UniProt Q14191).
T1 construct: A His-tagged construct of WRN (AA S2-S1235) was produced and used for the ATPase assay; His; made in house; host or cells: Sf9 insect cells (baculovirus, pFastBac1)
T1 sequence (Q14191 2-1235): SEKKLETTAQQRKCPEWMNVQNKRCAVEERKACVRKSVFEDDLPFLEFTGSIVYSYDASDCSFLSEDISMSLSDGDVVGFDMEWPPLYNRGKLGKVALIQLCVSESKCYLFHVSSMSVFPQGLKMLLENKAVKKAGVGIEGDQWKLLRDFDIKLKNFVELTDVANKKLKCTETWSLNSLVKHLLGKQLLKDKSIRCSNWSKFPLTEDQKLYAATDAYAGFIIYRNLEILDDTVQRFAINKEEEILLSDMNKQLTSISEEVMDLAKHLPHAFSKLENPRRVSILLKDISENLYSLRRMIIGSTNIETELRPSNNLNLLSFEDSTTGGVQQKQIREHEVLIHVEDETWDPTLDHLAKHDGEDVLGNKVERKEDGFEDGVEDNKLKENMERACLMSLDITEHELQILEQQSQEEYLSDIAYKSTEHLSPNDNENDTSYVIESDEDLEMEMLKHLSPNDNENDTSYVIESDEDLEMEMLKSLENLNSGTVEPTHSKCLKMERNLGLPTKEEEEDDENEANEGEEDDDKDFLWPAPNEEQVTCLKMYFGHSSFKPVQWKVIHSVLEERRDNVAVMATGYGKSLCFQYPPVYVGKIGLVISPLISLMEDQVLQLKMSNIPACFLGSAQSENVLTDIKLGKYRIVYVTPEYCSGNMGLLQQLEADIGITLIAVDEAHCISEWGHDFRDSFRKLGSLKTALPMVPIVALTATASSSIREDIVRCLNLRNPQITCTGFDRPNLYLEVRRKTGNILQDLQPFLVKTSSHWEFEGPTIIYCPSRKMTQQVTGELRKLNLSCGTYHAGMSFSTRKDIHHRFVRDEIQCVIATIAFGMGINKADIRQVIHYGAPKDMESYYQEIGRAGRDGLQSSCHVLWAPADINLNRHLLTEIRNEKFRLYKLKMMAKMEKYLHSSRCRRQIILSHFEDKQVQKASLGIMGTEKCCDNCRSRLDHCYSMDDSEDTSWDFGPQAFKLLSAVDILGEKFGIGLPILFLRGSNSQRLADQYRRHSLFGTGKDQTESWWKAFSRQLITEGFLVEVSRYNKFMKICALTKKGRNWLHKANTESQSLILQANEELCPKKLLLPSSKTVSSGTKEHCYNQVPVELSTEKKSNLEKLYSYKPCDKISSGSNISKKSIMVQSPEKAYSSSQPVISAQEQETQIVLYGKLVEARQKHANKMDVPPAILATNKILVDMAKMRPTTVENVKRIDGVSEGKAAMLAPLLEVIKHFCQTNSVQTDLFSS
As to the kind of experiment: WRN Helicase activity assay (fluorescence DNA unwinding). Type of assay: biochemical. To be noted: 1-hr pre-incubation with enzyme; 100 μM ATP, 25 nM forked dsDNA, 1 nM WRN; geometric mean of at least 2 replicates. The procedure: Compounds of the examples were tested for WRN helicase activity. DNA encoding the target protein, 6×HIS-TEV-WRN-517-945, was produced, cloned and transfected as detailed in Example D. To determine the inhibitory properties of the compounds, a 384 wells plate-based Helicase assay was set up to measure the extent of DNA unwinding (Helicase) activity of WRN. The WRN Helicase assay was designed to measure increase in fluorescence signal using a fluorescence based, donor-quencher paired forked dsDNA oligomer substrate (custom synthesis from Sigma-Aldrich) prepared by annealing equal amounts of oligo GPat-1 ([BHQ2][…]) and oligo GPat-2 ([…][TAM]). Continuous measurement of fluorescent signal was used to optimize the buffer conditions, concentration of enzyme (WRN), concentration of substrates (ATP & dsDNA), and the linearity of the Helicase reaction. All solutions were prepared in the following assay buffer: 50 mM Tris-HCl, pH-7.5, 2 mM MgCl2, 50 mM NaCl, 1 mM EGTA, 0.01% P-20, 0.05% BSA, and 2 mM DTT prepared with nuclease free water.
A serial dilution (1:3 scheme) of the compounds was prepared in neat DMSO and 100 nL of the compounds was dispensed in the Greiner black low volume (Greiner #784076) 384 wells assay plate. An 1-hr pre-incubation of the compounds with enzyme was included. A His-tagged construct of WRN (AA S2-S1235) was produced and used for the ATPase assay. Maximum inhibition control wells were set up with the addition of only assay buffer, and no inhibition control wells were set up with neat DMSO without test compounds. The reaction was initiated by addition of 5 μL substrate mix (200 μM ultrapure ATP, and 50 nM dsDNA prepared in assay buffer) and incubated at 25° C. for 35 min. A typical Helicase reaction consists of 25 nM forked dsDNA, 100 μM ATP, and 1 nM WRN prepared in assay buffer. The WRN Helicase reaction was quenched by the addition of 5 μL ‘STOP’ solution containing 100 mM EDTA (final EDTA concentration 33.33 mM) prepared in assay buffer. The plates were read on BMG PHERAstar FSX using 540/590 module to measure an increase of fluorescence. Data analysis was carried out using the Genedata software following % of control normalization. Fitting parameters include dose response IC50, Hill slope (n), maximum inhibition (S∞), and minimum inhibition (S0). The reported IC50 values for compounds in this invention are the geometric means of at least 2 independent replicates.

Assay [2] concerns the target T1, WRN. The experiment in a line: WRN ATPase activity assay (ADP-Glo). Format: biochemical. To be noted: 1-hr pre-incubation with enzyme; 100 μM ATP, 25 nM forked dsDNA, 1 nM WRN; geometric mean of at least 2 replicates. As to the method:
Compounds of the Examples were tested for WRN ATPase activity. WRN ATPase activity catalyzes ATP hydrolysis to produce ADP and phosphate. DNA encoding the target protein, 6×HIS-TEV-WRN-517-945, was produced, cloned and transfected as detailed in Example D. The amount of ADP produced was measured using ADP-Glo™ Kinase Assay kit from Promega Corporation in a Greiner white regular volume 384 wells assay plate (Greiner #781075). Data was normalized to a standard curve generated using various ADP concentrations and the corresponding luminescent signal intensities at each concentration. The assay conditions were optimized for enzyme concentration (WRN), substrate concentrations (ATP & dsDNA), and the linearity of the ATPase reaction, in the following assay buffer: 50 mM Tris-HCl, pH-7.5, 2 mM MgCl2, 50 mM NaCl, 1 mM EGTA, 0.01% P-20, 0.05% BSA, and 2 mM DTT prepared with nuclease free water.
A serial dilution (1:3 scheme) of the compounds were prepared in neat DMSO, with 100 nL of the compounds dispensed in the 384 wells assay plate. An 1-hr pre-incubation of the compounds with enzyme was included. A His-tagged construct of WRN (AA S2-S1235) was produced and used for the ATPase assay. Maximum inhibition control wells were set up with the addition of only assay buffer, and no inhibition control wells were set up with neat DMSO without test compounds. The reaction was initiated by addition of 5 μL substrate mix (200 μM ultrapure ATP, and 50 nM dsDNA prepared in assay buffer) and incubated at 25° C. for 35 min. A forked dsDNA oligomer substrate was prepared by annealing equal amounts of oligo GPat-1 ([BHQ2][…]) and oligo GPat-2 ([…][TAM]) and was used as dsDNA substrate for WRN ATPase assay. A typical ATPase reaction consists of 25 nM forked dsDNA, 100 μM ATP, and 1 nM WRN prepared in assay buffer. The WRN ATPase reaction was stopped by the addition of 5 μL of ADP-Glo Reagent from ADP-Glo™ Kinase Assay kit and incubated for 40 min to deplete the unreacted ATP. Afterwards, 5 μL of Kinase Detection Reagent from the ADP-Glo™ Kinase Assay kit was added and incubated for 1 hr for the development of luminescence signal.
Luminesce signals were measured on BMG PHERAstar FSX using luminescence protocol. Data analysis was carried out using Genedata software following % of control normalization. Fitting parameters include dose response IC50, Hill slope (n), maximum inhibition (S∞), and minimum inhibition (S0). The reported IC50 values for compounds in this invention are the geometric means of at least 2 independent replicates.

As to `C=CC(=O)Nc1nn(C)cc1-c1c(CC)nc2n(CC(=O)Nc3ccc(C(F)(F)F)cc3)c3ccccc3n2c1=O` [Example 16, N-(4-(2-Ethyl-4-oxo-10-(2-oxo-2-((4-(trifluoromethyl)phenyl)amino)ethyl)-4,10-dihydrobenzo[4,5]imidazo[1,2-a]pyrimidin-3-yl)-1-methyl-1H-pyrazol-3-yl)acrylamide], the concentration for half-maximal inhibition (IC50) against WRN [1] was in the range of 5000 to 20000 nM; against WRN [2] it was 1000 to 5000 nM.
The like results for `C=CC(=O)Nc1ccccc1-c1c(CC)nc2n(CC(=O)Nc3ccc(F)c(F)c3)c3cc(OC)ccc3n2c1=O` [Example 17, N-(2-(10-(2-((3,4-Difluorophenyl)amino)-2-oxoethyl)-2-ethyl-8-methoxy-4-oxo-4,10-dihydrobenzo[4,5]imidazo[1,2-a]pyrimidin-3-yl)phenyl)acrylamide] were, in that order, 100 to 500 nM and 100 to 500 nM.
With `C=CC(=O)Nc1ccccc1-c1c(CC)nc2n(CC(=O)Nc3ccc(F)cc3)c3cc(C)c(C)cc3n2c1=O` [Example 18, N-(2-(2-Ethyl-10-(2-((4-fluorophenyl)amino)-2-oxoethyl)-7,8-dimethyl-4-oxo-4,10-dihydrobenzo[4,5]imidazo[1,2-a]pyrimidin-3-yl)phenyl)acrylamide], the IC50 lay in the range of 5000 to 20000 nM at WRN [1] and 1000 to 5000 nM against WRN [2].
Regarding `C=CC(=O)Nc1ccccc1-c1c(CC)nc2n(CC(=O)Nc3ccc(C(F)(F)F)cc3)c3c(OC)cccc3n2c1=O` [Example 19, N-(2-(2-Ethyl-9-methoxy-4-oxo-10-(2-oxo-2-((4-(trifluoromethyl)phenyl)amino)ethyl)-4,10-dihydrobenzo[4,5]imidazo[1,2-a]pyrimidin-3-yl)phenyl)acrylamide], the half-maximal inhibitory concentration (IC50) at WRN [1] and against WRN [2] was less than 100 nM in each case.
On to `C=CC(=O)Nc1ccccc1-c1c(CC)nc2n(CC(=O)Nc3ccc(C(F)(F)F)cc3)c3ncccc3n2c1=O` [Example 20, N-(2-(8-Ethyl-6-oxo-10-(2-oxo-2-((4-(trifluoromethyl)phenyl)amino)ethyl)-6,10-dihydropyrido[2′,3′: 4,5]imidazo[1,2-a]pyrimidin-7-yl)phenyl)acrylamide], for which the IC50 against WRN [1] and against WRN [2] was 100 to 500 nM each time.
For the molecule `C=CS(=O)(=O)Nc1ccccc1-c1c(CC)nc2n(CC(=O)Nc3ccc(C(F)(F)F)cc3)c3ccccc3n2c1=O` [Example 21, 2-(2-Ethyl-4-oxo-3-(2-(vinylsulfonamido)phenyl)benzo[4,5]imidazo[1,2-a]pyrimidin-10(4H)-yl)-N-(4-(trifluoromethyl)phenyl)acetamide], the concentration for half-maximal inhibition (IC50) against WRN [1] and against WRN [2] was less than 100 nM in each case.
Take `C=CC(=O)Nc1ccccc1-c1c(CC)nc2n(CC(=O)Nc3ccc(C(F)(F)F)cc3)c3c(n2c1=O)CCCC3` [Example 22, N-(2-(2-ethyl-4-oxo-10-(2-oxo-2-((4-(trifluoromethyl)phenyl)amino)ethyl)-4,6,7,8,9,10-hexahydrobenzo[4,5]imidazo[1,2-a]pyrimidin-3-yl)phenyl)acrylamide]: the IC50 on WRN [1] and on WRN [2] was less than 100 nM throughout.
With `C=CS(=O)(=O)Nc1ccccc1-c1c(CC)nc2n(CC(=O)Nc3ccc(C(F)(F)F)cc3)c3c(n2c1=O)CCCC3` [Example 23, 2-(2-Ethyl-4-oxo-3-(2-(vinylsulfonamido)phenyl)-6,7,8,9-tetrahydrobenzo[4,5]imidazo[1,2-a]pyrimidin-10(4H)-yl)-N-(4-(trifluoromethyl)phenyl)acetamide], the IC50 against WRN [1] and at WRN [2] was less than 100 nM each time.
As for `C=CS(=O)(=O)Nc1ccccc1-c1c(CC)c(C#N)c2n(CC(=O)Nc3ccc(C(F)(F)F)cc3)c3ccccc3n2c1=O` [Example 24, 2-(4-Cyano-3-ethyl-1-oxo-2-(2-(vinylsulfonamido)phenyl)benzo[4,5]imidazo[1,2-a]pyridin-5(1H)-yl)-N-(4-(trifluoromethyl)phenyl)acetamide], the 50% inhibitory concentration (IC50) at WRN [1] and at WRN [2] was 100 to 500 nM throughout.
